Results: ChEMBL document CHEMBL4715829, “Heterodimeric Rifampicin-Tobramycin conjugates break intrinsic resistance of Pseudomonas aeruginosa to doxycycline and chloramphenicol in vitro and in a Galleria mellonella in vivo model” (Eur J Med Chem, 2019)

How the values were obtained:
Pseudomonas aeruginosa [1] = test: Antibacterial activity against Pseudomonas aeruginosa 260-97103 infected in Galleria mellonella larvae assessed as survival of larvae treated at 3 hrs post-infection in presence of chloramphenicol and measured every 6 hrs for 36 hrs; format: functional, organism-based; conditions: dose 75-100 mg/kg
Pseudomonas aeruginosa [2] = test: Antibacterial activity against Pseudomonas aeruginosa 264-101354 assessed as potentiation of chloramphenicol-induced antibacterial activity by measuring chloramphenicol MIC at 9.8 uM incubated for 18 hrs in presence of chloramphenicol by broth microdilution assay (reference value: 4096 ug/ml); format: functional
Pseudomonas aeruginosa [3] = test: Antibacterial activity against Pseudomonas aeruginosa 101243 assessed as potentiation of doxycycline-induced antibacterial activity by measuring doxycycline MIC at 9.8 uM incubated for 18 hrs in presence of doxycycline by broth microdilution assay (reference value: 4 ug/ml); format: functional
Pseudomonas aeruginosa [4] = test: Antibacterial activity against Pseudomonas aeruginosa 262-101856 assessed as fractional inhibitory concentration index incubated for 18 hrs in presence of tigecycline by broth microdilution assay; format: functional
Pseudomonas aeruginosa [5] = test: Antibacterial activity against Pseudomonas aeruginosa 259-96918 assessed as fractional inhibitory concentration incubated for 18 hrs in presence of tigecycline by broth microdilution assay; format: functional
Pseudomonas aeruginosa [6] = test: Antibacterial activity against Pseudomonas aeruginosa 91433 assessed as potentiation of doxycycline-induced antibacterial activity by measuring doxycycline MIC at 9.8 uM incubated for 18 hrs in presence of doxycycline by broth microdilution assay (reference value: 32 ug/ml); format: functional
Pseudomonas aeruginosa [7] = test: Antibacterial activity against Pseudomonas aeruginosa 259-96918 assessed as fractional inhibitory concentration index incubated for 18 hrs in presence of rifampicin by broth microdilution assay; format: functional
Pseudomonas aeruginosa [8] = test: Potentiation of doxycycline-induced antibacterial activity against Pseudomonas aeruginosa 101885 assessed as fold change in doxycycline MIC at 9.8 uM incubated for 18 hrs in presence of doxycycline by broth microdilution assay relative to control; format: functional
Pseudomonas aeruginosa [9] = test: Antibacterial activity against Pseudomonas aeruginosa 262-101856 assessed as fractional inhibitory concentration incubated for 18 hrs in presence of minocycline by broth microdilution assay; format: functional
Pseudomonas aeruginosa [10] = test: Antibacterial activity against Pseudomonas aeruginosa 264-101354 assessed as fractional inhibitory concentration incubated for 18 hrs in presence of minocycline by broth microdilution assay; format: functional
Enterobacter cloacae = test: Potentiation of doxycycline-induced antibacterial activity against Enterobacter cloacae ATCC 117029 assessed as fold change in doxycycline MIC at 9.8 uM incubated for 18 hrs in presence of doxycycline by broth microdilution assay relative to control; format: functional
Pseudomonas aeruginosa [11] = test: Potentiation of doxycycline-induced antibacterial activity against Pseudomonas aeruginosa 259-96918 assessed as fold change in doxycycline MIC at 9.8 uM incubated for 18 hrs in presence of doxycycline by broth microdilution assay relative to control; format: functional
Pseudomonas aeruginosa [12] = test: Antibacterial activity against Pseudomonas aeruginosa 100036 assessed as potentiation of doxycycline-induced antibacterial activity by measuring doxycycline MIC at 9.8 uM incubated for 18 hrs in presence of doxycycline by broth microdilution assay (reference value: 64 ug/ml); format: functional
Acinetobacter baumannii = test: Potentiation of chloramphenicol-induced antibacterial activity against Acinetobacter baumannii ATCC 17978 assessed as fold change in chloramphenicol MIC at 9.8 uM incubated for 18 hrs in presence of chloramphenicol by broth microdilution assay relative to control; format: functional
Pseudomonas aeruginosa [13] = test: Potentiation of chloramphenicol-induced antibacterial activity against Pseudomonas aeruginosa 260-97103 assessed as fold change in chloramphenicol MIC at 9.8 uM incubated for 18 hrs in presence of chloramphenicol by broth microdilution assay relative to control; format: functional
Pseudomonas aeruginosa [14] = test: Antibacterial activity against Pseudomonas aeruginosa 91433 assessed as fractional inhibitory concentration index incubated for 18 hrs in presence of rifampicin by broth microdilution assay; format: functional
Pseudomonas aeruginosa [15] = test: Antibacterial activity against Pseudomonas aeruginosa 91433 assessed as fractional inhibitory concentration index incubated for 18 hrs in presence of minocycline by broth microdilution assay; format: functional
Pseudomonas aeruginosa [16] = test: Potentiation of chloramphenicol-induced antibacterial activity against Pseudomonas aeruginosa 264-101354 assessed as fold change in chloramphenicol MIC at 9.8 uM incubated for 18 hrs in presence of chloramphenicol by broth microdilution assay relative to control; format: functional
Pseudomonas aeruginosa [17] = test: Antibacterial activity against Pseudomonas aeruginosa 262-101856 assessed as reduction in bacterial growth by measuring chloramphenicol MIC at 8 ug/ml incubated for 18 hrs in presence of chloramphenicol by broth microdilution assay (reference value: 2048 ug/ml); format: functional; conditions: dose 8 µg/ml
Pseudomonas aeruginosa [18] = test: Antibacterial activity against Pseudomonas aeruginosa 260-97103 assessed as fractional inhibitory concentration incubated for 18 hrs in presence of chloramphenicol by broth microdilution assay; format: functional
Pseudomonas aeruginosa [19] = test: Antibacterial activity against Pseudomonas aeruginosa 260-97103 assessed as fractional inhibitory concentration incubated for 18 hrs in presence of doxycycline by broth microdilution assay; format: functional
Pseudomonas aeruginosa [20] = test: Antibacterial activity against Pseudomonas aeruginosa 101243 assessed as potentiation of chloramphenicol-induced antibacterial activity by measuring chloramphenicol MIC at 7.6 uM incubated for 18 hrs in presence of chloramphenicol by broth microdilution assay (reference value: 1 ug/ml); format: functional
Pseudomonas aeruginosa [21] = test: Potentiation of chloramphenicol-induced antibacterial activity against Pseudomonas aeruginosa 101885 assessed as fold change in chloramphenicol MIC at 7.6 uM incubated for 18 hrs in presence of chloramphenicol by broth microdilution assay relative to control; format: functional
Pseudomonas aeruginosa [22] = test: Antibacterial activity against Pseudomonas aeruginosa 100036 assessed as potentiation of doxycycline-induced antibacterial activity by measuring doxycycline MIC at 7.6 uM incubated for 18 hrs in presence of doxycycline by broth microdilution assay (reference value: 64 ug/ml); format: functional
Pseudomonas aeruginosa [23] = test: Potentiation of doxycycline-induced antibacterial activity against Pseudomonas aeruginosa 259-96918 assessed as fold change in doxycycline MIC at 7.6 uM incubated for 18 hrs in presence of doxycycline by broth microdilution assay relative to control; format: functional
Pseudomonas aeruginosa [24] = test: Antibacterial activity against Pseudomonas aeruginosa 260-97103 assessed as potentiation of chloramphenicol-induced antibacterial activity by measuring chloramphenicol MIC at 7.6 uM incubated for 18 hrs in presence of chloramphenicol by broth microdilution assay (reference value: 128 ug/ml); format: functional
Pseudomonas aeruginosa [25] = test: Antibacterial activity against Pseudomonas aeruginosa 101885 assessed as potentiation of chloramphenicol-induced antibacterial activity by measuring chloramphenicol MIC at 7.6 uM incubated for 18 hrs in presence of chloramphenicol by broth microdilution assay (reference value: 512 ug/ml); format: functional
Pseudomonas aeruginosa [26] = test: Potentiation of doxycycline-induced antibacterial activity against Pseudomonas aeruginosa 91433 assessed as fold change in doxycycline MIC at 7.6 uM incubated for 18 hrs in presence of doxycycline by broth microdilution assay relative to control; format: functional
Pseudomonas aeruginosa [27] = test: Antibacterial activity against Pseudomonas aeruginosa 101243 assessed as potentiation of doxycycline-induced antibacterial activity by measuring doxycycline MIC at 7.6 uM incubated for 18 hrs in presence of doxycycline by broth microdilution assay (reference value: 4 ug/ml); format: functional
Pseudomonas aeruginosa [28] = test: Antibacterial activity against Pseudomonas aeruginosa 262-101856 assessed as reduction in bacterial growth by measuring chloramphenicol MIC at 16 ug/ml incubated for 18 hrs in presence of chloramphenicol by broth microdilution assay (reference value: 2048 ug/ml); format: functional; conditions: dose 16 µg/ml

For `CO[C@H]1/C=C/O[C@@]2(C)Oc3c(C)c(O)c4c(O)c(c(/C=N/N5CCN(Cc6cn(CCCCCCO[C@@H]7[C@@H](O[C@H]8O[C@H](CO)[C@@H](O)[C@H](N)[C@H]8O)[C@H](N)C[C@H](N)[C@H]7O[C@H]7O[C@H](CN)[C@@H](O)C[C@H]7N)nn6)CC5)c(O)c4c3C2=O)NC(=O)/C(C)=C\C=C\[C@H](C)[C@H](O)[C@@H](C)[C@@H](O)[C@@H](C)[C@H](OC(C)=O)[C@@H]1C.Cl.Cl.Cl.Cl.Cl`, the Activity (Pseudomonas aeruginosa [1]) was “Dose-dependent effect”, the MIC (Pseudomonas aeruginosa [2]) was 128 µg/mL and the MIC (Pseudomonas aeruginosa [3]) was 0.25 µg/mL. The “fractional inhibitory concentration index (FICI)” value (Pseudomonas aeruginosa [4]) was under 0.19, the FIC (Pseudomonas aeruginosa [5]) was under 0.125 and the MIC (Pseudomonas aeruginosa [6]) was 4 µg/mL. The “fractional inhibitory concentration index (FICI)” value (Pseudomonas aeruginosa [7]) was under 0.25, the “fold change (FC)” value (Pseudomonas aeruginosa [8]) was 4 and the FIC (Pseudomonas aeruginosa [9]) was under 0.063. The FIC (Pseudomonas aeruginosa [10]) was 0.063, the “fold change (FC)” value (Enterobacter cloacae) was 0 and the “fold change (FC)” value (Pseudomonas aeruginosa [11]) was 4. For the same molecule, the MIC (Pseudomonas aeruginosa [12]) was 1 µg/mL, the “fold change (FC)” value (Acinetobacter baumannii) was 0 and the “fold change (FC)” value (Pseudomonas aeruginosa [13]) was 4. For the same molecule, the “fractional inhibitory concentration index (FICI)” value (Pseudomonas aeruginosa [14]) was 1.13, the “fractional inhibitory concentration index (FICI)” value (Pseudomonas aeruginosa [15]) was under 0.25 and the “fold change (FC)” value (Pseudomonas aeruginosa [16]) was 4.
`NC[C@H]1O[C@H](O[C@H]2[C@H](O)[C@@H](O[C@H]3O[C@H](CO)[C@@H](O)[C@H](N)[C@H]3O)[C@H](N)C[C@@H]2N)[C@H](N)C[C@@H]1O` [TOBRAMYCIN] gave an MIC (Pseudomonas aeruginosa [17]) of 2050 µg/mL, an FIC (Pseudomonas aeruginosa [18]) of 0.5 and an FIC (Pseudomonas aeruginosa [19]) of 0.5.
With `CO[C@H]1/C=C/O[C@@]2(C)Oc3c(C)c(O)c4c(O)c(c(/C=N/N5CCN(Cc6cn(CCCCCCCCCCCCO[C@@H]7[C@@H](O[C@H]8O[C@H](CO)[C@@H](O)[C@H](N)[C@H]8O)[C@H](N)C[C@H](N)[C@H]7O[C@H]7O[C@H](CN)[C@@H](O)C[C@H]7N)nn6)CC5)c(O)c4c3C2=O)NC(=O)/C(C)=C\C=C\[C@H](C)[C@H](O)[C@@H](C)[C@@H](O)[C@@H](C)[C@H](OC(C)=O)[C@@H]1C.O=C(O)C(F)(F)F.O=C(O)C(F)(F)F.O=C(O)C(F)(F)F.O=C(O)C(F)(F)F.O=C(O)C(F)(F)F` the MIC (Pseudomonas aeruginosa [20]) was 0.0625 µg/mL, the “fold change (FC)” value (Pseudomonas aeruginosa [21]) was 4 and the MIC (Pseudomonas aeruginosa [22]) was 0.5 µg/mL. For the same molecule, the “fold change (FC)” value (Pseudomonas aeruginosa [23]) was 4, the MIC (Pseudomonas aeruginosa [24]) was 0.5 µg/mL and the MIC (Pseudomonas aeruginosa [25]) was 4 µg/mL. The “fold change (FC)” value (Pseudomonas aeruginosa [26]) was 4 and the MIC (Pseudomonas aeruginosa [27]) was 0.125 µg/mL.
Work on `CO[C@H]1/C=C/O[C@@]2(C)Oc3c(C)c(O)c4c(O)c(c(/C=N/N5CCN(C)CC5)c(O)c4c3C2=O)NC(=O)/C(C)=C\C=C\[C@H](C)[C@H](O)[C@@H](C)[C@@H](O)[C@@H](C)[C@H](OC(C)=O)[C@@H]1C` [RIFAMPIN] yielded an MIC (Pseudomonas aeruginosa [28]) of 2050 µg/mL.
